In ChEMBL document CHEMBL3603774, “Novel 5-functionalized-pyrazoles: Synthesis, characterization and pharmacological screening” (Bioorg Med Chem Lett, 2015):
Converted amounts (≈) assume the structure as drawn.

Legend:
[1] = test system: Bacillus cereus; test: Antibacterial activity against Bacillus cereus MTCC 8372 assessed as concentration required to completely destroy test microorganisms after 24 hrs; assay type: functional; conditions: MTCC 8372, 24 h
[2] = Inhibition of alpha-glucosidase (unknown origin) using p-nitrophenol glycoside as substrate after 30 mins by colorimetric analysis; parameters: species or system Homo sapiens
[3] = test system: Bacillus cereus; test: Antibacterial activity against Bacillus cereus MTCC 8372 at 100 ug/ml after 24 hrs by disc diffusion method; assay type: functional; conditions: MTCC 8372, 24 h, read-out: IZ
[4] = test system: Aspergillus niger; test: Antifungal activity against Aspergillus niger MTCC 281 after 48 hrs by microdilution method; assay type: functional; conditions: MTCC 281, 48 h
[5] = test system: Staphylococcus aureus; test: Antibacterial activity against Staphylococcus aureus MTCC 96 at 100 ug/ml after 24 hrs by disc diffusion method; assay type: functional; conditions: MTCC 96, 24 h, read-out: IZ
[6] = test system: Aspergillus niger; test: Antifungal activity against Aspergillus niger MTCC 281 assessed as concentration required to completely destroy test microorganisms after 24 hrs; assay type: functional; conditions: MTCC 281, 24 h
[7] = target: T1, Alpha amylase (Homo sapiens, UniProt P0DUB6); test: Inhibition of alpha-amylase (unknown origin) using starch as substrate after 30 mins by spectrophotometer analysis
T1 sequence (P0DUB6 whole entry): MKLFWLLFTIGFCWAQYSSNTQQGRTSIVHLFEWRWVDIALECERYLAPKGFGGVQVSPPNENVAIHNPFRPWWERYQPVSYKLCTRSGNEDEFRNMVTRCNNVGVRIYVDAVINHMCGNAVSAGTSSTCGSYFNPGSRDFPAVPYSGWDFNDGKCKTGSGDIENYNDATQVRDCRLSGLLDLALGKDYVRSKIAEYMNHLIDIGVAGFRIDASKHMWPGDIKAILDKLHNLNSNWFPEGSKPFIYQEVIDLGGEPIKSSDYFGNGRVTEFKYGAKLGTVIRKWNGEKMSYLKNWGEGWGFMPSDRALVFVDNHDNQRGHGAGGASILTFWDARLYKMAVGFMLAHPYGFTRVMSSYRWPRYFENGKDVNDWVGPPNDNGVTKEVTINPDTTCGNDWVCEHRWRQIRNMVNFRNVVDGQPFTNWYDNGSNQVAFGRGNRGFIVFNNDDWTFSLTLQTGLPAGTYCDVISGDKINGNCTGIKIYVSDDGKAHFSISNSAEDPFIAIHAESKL

[8] = test system: Klebsiella pneumoniae; test: Antibacterial activity against Klebsiella pneumoniae MTCC 3384 assessed as concentration required to completely destroy test microorganisms after 24 hrs; assay type: functional; conditions: MTCC 3384, 24 h
[9] = test system: Aspergillus niger; test: Antifungal activity against Aspergillus niger MTCC 281 at 100 ug/ml after 24 hrs by disc diffusion method; assay type: functional; conditions: MTCC 281, 24 h, read-out: IZ
[10] = test system: Aspergillus flavus; test: Antifungal activity against Aspergillus flavus MTCC 873 after 48 hrs by microdilution method; assay type: functional; conditions: MTCC 873, 48 h
[11] = test system: Staphylococcus aureus; test: Antibacterial activity against Staphylococcus aureus MTCC 96 after 24 hrs by microdilution method; assay type: functional; conditions: MTCC 96, 24 h
[12] = test system: Klebsiella pneumoniae; test: Antibacterial activity against Klebsiella pneumoniae MTCC 3384 after 24 hrs by microdilution method; assay type: functional; conditions: MTCC 3384, 24 h
[13] = test system: Staphylococcus aureus; test: Antibacterial activity against Staphylococcus aureus MTCC 96 at 50 ug/ml after 24 hrs by disc diffusion method; assay type: functional; conditions: MTCC 96, 24 h, read-out: IZ
[14] = test system: Aspergillus flavus; test: Antifungal activity against Aspergillus flavus MTCC 873 assessed as concentration required to completely destroy test microorganisms after 24 hrs; assay type: functional; conditions: MTCC 873, 24 h
[15] = test system: Aspergillus niger; test: Antifungal activity against Aspergillus niger MTCC 281 at 50 ug/ml after 24 hrs by disc diffusion method; assay type: functional; conditions: MTCC 281, 24 h, read-out: IZ
[16] = test system: Aspergillus flavus; test: Antifungal activity against Aspergillus flavus MTCC 873 at 50 ug/ml after 24 hrs by disc diffusion method; assay type: functional; conditions: MTCC 873, 24 h, read-out: IZ
[17] = test system: Bacillus cereus; test: Antibacterial activity against Bacillus cereus MTCC 8372 after 24 hrs by microdilution method; assay type: functional; conditions: MTCC 8372, 24 h
[18] = test system: Staphylococcus aureus; test: Antibacterial activity against Staphylococcus aureus MTCC 96 assessed as concentration required to completely destroy test microorganisms after 24 hrs; assay type: functional; conditions: MTCC 96, 24 h
[19] = test system: Escherichia coli; test: Antibacterial activity against Escherichia coli MTCC 724 at 50 ug/ml after 24 hrs by disc diffusion method; assay type: functional; conditions: MTCC 724, 24 h, read-out: IZ
[20] = test system: Aspergillus flavus; test: Antifungal activity against Aspergillus flavus MTCC 873 at 100 ug/ml after 24 hrs by disc diffusion method; assay type: functional; conditions: MTCC 873, 24 h, read-out: IZ
[21] = test system: Klebsiella pneumoniae; test: Antibacterial activity against Klebsiella pneumoniae MTCC 3384 at 100 ug/ml after 24 hrs by disc diffusion method; assay type: functional; conditions: MTCC 3384, 24 h, read-out: IZ
[22] = test system: Escherichia coli; test: Antibacterial activity against Escherichia coli MTCC 724 at 100 ug/ml after 24 hrs by disc diffusion method; assay type: functional; conditions: MTCC 724, 24 h, read-out: IZ
[23] = test system: Klebsiella pneumoniae; test: Antibacterial activity against Klebsiella pneumoniae MTCC 3384 at 50 ug/ml after 24 hrs by disc diffusion method; assay type: functional; conditions: MTCC 3384, 24 h, read-out: IZ
[24] = test system: Escherichia coli; test: Antibacterial activity against Escherichia coli MTCC 724 assessed as concentration required to completely destroy test microorganisms after 24 hrs; assay type: functional; conditions: MTCC 724, 24 h
[25] = test system: Escherichia coli; test: Antibacterial activity against Escherichia coli MTCC 724 after 24 hrs by microdilution method; assay type: functional; conditions: MTCC 724, 24 h
[26] = test system: Bacillus cereus; test: Antibacterial activity against Bacillus cereus MTCC 8372 at 50 ug/ml after 24 hrs by disc diffusion method; assay type: functional; conditions: MTCC 8372, 24 h, read-out: IZ

| Structure (SMILES) | MBC [1] [µg/mL] | IC50 [2] [µg/mL] | zone of inhibition at 100 µg/mL [3] [mm] | MIC [4] [µg/mL] | zone of inhibition at 100 µg/mL [5] [mm] | MFC [6] [µg/mL] | IC50 [7] [µg/mL] | MBC [8] [µg/mL] | zone of inhibition at 100 µg/mL [9] [mm] | MIC [10] [µg/mL] | MIC [11] [µg/mL] | MIC [12] [µg/mL] | zone of inhibition at 50 µg/mL [13] [mm] | MFC [14] [µg/mL] | zone of inhibition at 50 µg/mL [15] [mm] | zone of inhibition at 50 µg/mL [16] [mm] | MIC [17] [µg/mL] | MBC [18] [µg/mL] | zone of inhibition at 50 µg/mL [19] [mm] | zone of inhibition at 100 µg/mL [20] [mm] | other results |
| --- | --- | --- | --- | --- | --- | --- | --- | --- | --- | --- | --- | --- | --- | --- | --- | --- | --- | --- | --- | --- | --- |
| CCOC(=O)c1c(-c2ccccc2)nn(-c2ccccc2)c1COc1ccc(C=O)cc1OC | 230 (≈ 504 µM) | 70 (≈ 153 µM) | 8 | 40 (≈ 87.6 µM) | 8 | 205 (≈ 449 µM) | 60 (≈ 131 µM) | 200 (≈ 438 µM) | 10 | 40 (≈ 87.6 µM) | 45 (≈ 98.6 µM) | 45 (≈ 98.6 µM) | 2 | 250 (≈ 548 µM) | 12 | 8 | 45 (≈ 98.6 µM) | 240 (≈ 526 µM) | 3 | 9 | zone of inhibition at 100 µg/mL [21]: 6 mm; zone of inhibition at 100 µg/mL [22]: 8 mm; zone of inhibition at 50 µg/mL [23]: 4 mm; MBC [24]: 210 µg/mL (≈ 460 µM); MIC [25]: 40 µg/mL (≈ 87.6 µM); zone of inhibition at 50 µg/mL [26]: 4 mm |
| CCOC(=O)c1c(-c2ccccc2)nn(-c2ccccc2)c1COCc1c(-c2ccc(F)cc2)nc(N(C)S(C)(=O)=O)nc1C(C)C | 150 (≈ 228 µM) | 25 (≈ 38 µM) | 20 | 50 (≈ 76 µM) | 19 | 280 (≈ 426 µM) | 15 (≈ 22.8 µM) | 240 (≈ 365 µM) | 8 | 55 (≈ 83.6 µM) | 40 (≈ 60.8 µM) | 30 (≈ 45.6 µM) | 6 | 300 (≈ 456 µM) | 10 | 12 | 15 (≈ 22.8 µM) | 190 (≈ 289 µM) | 3 | 6 | zone of inhibition at 100 µg/mL [21]: 10 mm; zone of inhibition at 100 µg/mL [22]: 10 mm; zone of inhibition at 50 µg/mL [23]: 8 mm; MBC [24]: 280 µg/mL (≈ 426 µM); MIC [25]: 35 µg/mL (≈ 53.2 µM); zone of inhibition at 50 µg/mL [26]: 8 mm |
| CCOC(=O)c1c(-c2ccccc2)nn(-c2ccccc2)c1COc1ccc(C=O)cc1 | 210 (≈ 492 µM) | 65 (≈ 152 µM) | 3 | 45 (≈ 106 µM) | 8 | 260 (≈ 610 µM) | 60 (≈ 141 µM) | 230 (≈ 539 µM) | 10 | 40 (≈ 93.8 µM) | 40 (≈ 93.8 µM) | 55 (≈ 129 µM) | 2 | 275 (≈ 645 µM) | 12 | 20 | 40 (≈ 93.8 µM) | 210 (≈ 492 µM) | 10 | 5 | zone of inhibition at 100 µg/mL [21]: 12 mm; zone of inhibition at 100 µg/mL [22]: 16 mm; zone of inhibition at 50 µg/mL [23]: 8 mm; MBC [24]: 235 µg/mL (≈ 551 µM); MIC [25]: 55 µg/mL (≈ 129 µM); zone of inhibition at 50 µg/mL [26]: 3 mm |
